Reference: patent US20230113037A1 (Bayer Aktiengesellschaft, priority 2019, published 2023)
Values joined by “and” are separate entries in the source; they are usually repeats but may differ in a detail not shown here. Identical values can stand only once. Like-named read-outs stand apart in the source and are kept apart here.

Assays:
AHR [1] = biological target: T1, AHR (Homo sapiens, UniProt P35869); experiment: In vitro assay 1: antagonism in human cell line (AHR transactivation, firefly luciferase reporter, kynurenic acid prestimulated); format: cell-based; settings: AHR Antagonism Human IC50 [M]
T1 construct: U87 MG glioblastoma cells (ATCC #HTB-14) endogenously expressing AHR; endogenous in cells; host or cells: U87 MG glioblastoma cells (ATCC #HTB-14)
T1 sequence (P35869 11-848): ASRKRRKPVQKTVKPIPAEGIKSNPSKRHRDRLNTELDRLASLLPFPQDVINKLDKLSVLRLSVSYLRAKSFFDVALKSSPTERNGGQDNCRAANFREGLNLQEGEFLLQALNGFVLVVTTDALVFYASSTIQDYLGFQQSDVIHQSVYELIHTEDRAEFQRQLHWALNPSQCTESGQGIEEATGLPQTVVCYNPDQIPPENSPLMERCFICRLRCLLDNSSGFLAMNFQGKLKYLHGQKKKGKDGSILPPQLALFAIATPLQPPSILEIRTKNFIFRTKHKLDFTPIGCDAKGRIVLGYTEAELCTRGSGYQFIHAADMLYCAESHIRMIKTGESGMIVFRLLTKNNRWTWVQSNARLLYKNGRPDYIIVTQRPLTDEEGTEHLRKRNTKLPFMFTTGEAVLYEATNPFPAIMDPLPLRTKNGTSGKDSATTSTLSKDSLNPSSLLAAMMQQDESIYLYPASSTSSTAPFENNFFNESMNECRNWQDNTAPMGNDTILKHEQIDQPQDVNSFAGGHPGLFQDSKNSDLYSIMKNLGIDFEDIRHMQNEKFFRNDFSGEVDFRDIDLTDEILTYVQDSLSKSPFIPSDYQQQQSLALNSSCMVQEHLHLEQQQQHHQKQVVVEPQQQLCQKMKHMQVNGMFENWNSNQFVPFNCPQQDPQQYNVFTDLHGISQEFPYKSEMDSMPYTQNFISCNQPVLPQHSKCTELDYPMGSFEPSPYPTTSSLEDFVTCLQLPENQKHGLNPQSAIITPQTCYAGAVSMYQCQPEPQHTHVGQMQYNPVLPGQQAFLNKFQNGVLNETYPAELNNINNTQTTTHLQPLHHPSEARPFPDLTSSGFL
Method in brief: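 Antagonism measured as loss of kynurenic acid-driven firefly luciferase from DRE reporter in stably transfected U87 MG cells; constitutive Renilla signal monitors cytotoxicity. Positive/negative control normalization, staurosporine 5 μM with 150 μM kynurenic acid as inhibition control; replicates given as mean or median.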

AHR [2] = biological target: T2, AHR (Mus musculus, UniProt P30561); experiment: In vitro assay 3: antagonism in mouse cell line (AHR transactivation, firefly luciferase reporter, kynurenic acid prestimulated); format: cell-based
T2 sequence (P30561 1-848 P471L/N533S/M589L): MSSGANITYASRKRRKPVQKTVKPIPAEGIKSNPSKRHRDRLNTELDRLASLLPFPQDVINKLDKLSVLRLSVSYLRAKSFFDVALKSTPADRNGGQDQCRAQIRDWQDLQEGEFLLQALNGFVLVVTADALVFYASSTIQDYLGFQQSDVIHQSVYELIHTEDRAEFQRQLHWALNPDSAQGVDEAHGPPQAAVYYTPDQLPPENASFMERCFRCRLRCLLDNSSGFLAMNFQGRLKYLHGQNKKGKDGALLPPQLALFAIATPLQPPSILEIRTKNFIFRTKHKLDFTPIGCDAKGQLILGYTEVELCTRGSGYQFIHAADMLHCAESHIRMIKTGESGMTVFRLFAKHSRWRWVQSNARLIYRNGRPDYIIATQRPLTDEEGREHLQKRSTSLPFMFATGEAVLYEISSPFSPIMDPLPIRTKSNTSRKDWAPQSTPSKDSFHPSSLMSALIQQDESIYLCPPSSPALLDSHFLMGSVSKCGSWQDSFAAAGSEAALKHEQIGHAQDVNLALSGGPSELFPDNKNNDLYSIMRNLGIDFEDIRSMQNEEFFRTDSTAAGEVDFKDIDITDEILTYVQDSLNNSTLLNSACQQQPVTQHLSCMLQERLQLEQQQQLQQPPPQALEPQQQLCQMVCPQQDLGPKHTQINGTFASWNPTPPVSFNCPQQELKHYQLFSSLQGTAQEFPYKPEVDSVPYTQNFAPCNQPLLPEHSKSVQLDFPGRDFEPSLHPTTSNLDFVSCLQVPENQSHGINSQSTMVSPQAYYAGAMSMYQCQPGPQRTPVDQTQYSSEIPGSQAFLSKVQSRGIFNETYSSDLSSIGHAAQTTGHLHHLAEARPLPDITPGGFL
Method in brief: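 Kynurenic acid-prestimulated mouse reporter cells; stable AHR-inducible firefly luc construct with DRE sites in promoter. No-agonist wells = positive inhibition ctrl. Luminescence normalized to pos/neg ctrls; n>1 reported as mean or median.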

[3] = read-out: AHR Antagonism Mouse IC50, mouse Hepa 1c1c7 cells, 200 μM kynurenic acid, 20 hours
[4] = mouse Hepa 1c1c7 cells, 200 μM kynurenic acid, 20 hours, read-out: AHR Antagonism Mouse IC50
[5] = Hepa 1c1c7 cells, 200 μM kynurenic acid, 20 hours, firefly luciferase reporter, read-out: AHR Antagonism Mouse IC50

| Compound | IC50 (AHR [1]) [M] | IC50 (AHR [2]; [4]) [µM] | IC50 (AHR [1]; firefly luciferase reporter) [M] | IC50 (AHR [2]; [5]) | IC50 (AHR [2]; [3]) [µM] |
| --- | --- | --- | --- | --- | --- |
| CS(=N)(=O)c1ccccc1-c1nc2c3ccccc3nc(N[C@@H]3CCCCNC3=O)n2n1 (single isomer, unassigned) [Example 661] | 1.53e-07 |  |  |  | 0.139 |
| CS(=N)(=O)c1ccccc1-c1nc2c3ccccc3nc(N[C@@H]3CCCCNC3=O)n2n1 (single isomer, unassigned) [Example 662] | 6.86e-08 |  |  |  | 0.0704 |
| CCNC(=O)C(CC)Nc1nc2ccccc2c2nc(-c3ccccc3OC(F)(F)F)nn12 (single isomer, unassigned) [Example 664, N-ethyl-2-({2-[2-(trifluoromethoxy)phenyl][1,2,4]triazolo[1,5-c]quinazolin-5-yl}amino)butanamide] | 1.26e-08 | 0.00147 |  |  |  |
| Cn1cc(-c2nc3c4cccc(Br)c4nc(N[C@H]4C[S+]([O-])CCNC4=O)n3n2)cn1 (single isomer, unassigned) [Example 849] |  |  | 4.87e-07 | 0.513 µM |  |
| COc1ccc(-c2nc3c4cccc(S(C)(=N)=O)c4nc(N[C@@H]4CCCCNC4=O)n3n2)cc1 (single isomer, unassigned) [Example 855] |  |  | 2.28e-09 | 0.0261 µM |  |
| Cn1cc(-c2nc3c4cccc(C(F)(F)F)c4nc(NC4C(=O)NCC4(C)C)n3n2)cn1 (single isomer, unassigned; (-)) [Example 729, (−)-4,4-dimethyl-3-{[2-(1-methyl-1H-pyrazol-4-yl)-7-(trifluoromethyl)[1,2,4]triazolo[1,5-c]quinazolin-5-yl]amino}pyrrolidin-2-one] | 3.6e-06 | 0.161 |  |  |  |
| CC(C)[C@@H](Nc1nc2ccccc2c2nc(-c3ccccc3)nn12)C(N)=O [Example 3, N^2-(2-phenyl[1,2,4]triazolo[1,5-c]quinazolin-5-yl)-D-valinamide] | 1.82e-09 | 0.000428 |  |  |  |
| CC[C@@H](Nc1nc2ccccc2c2nc(-c3ccccc3)nn12)C(N)=O [Example 4, (2R)-2-[(2-phenyl[1,2,4]triazolo[1,5-c]quinazolin-5-yl)amino]butanamide] | 1.68e-09 | 0.00091 |  |  |  |
| O=C1NCCC1Nc1nc2ccccc2c2nc(-c3cccc(F)c3)nn12 (stereo not shown) [Example 9, 3-{[2-(3-fluorophenyl)[1,2,4]triazolo[1,5-c]quinazolin-5-yl]amino}pyrrolidin-2-one] | 2.62e-08 | 0.068 |  |  |  |
| O=C1NCCCC[C@@H]1Nc1nc2ccccc2c2nc(-c3cccc(F)c3)nn12 [Example 10, (3S)-3-{[2-(3-fluorophenyl)[1,2,4]triazolo[1,5-c]quinazolin-5-yl]amino}azepan-2-one] | 2.71e-08 |  |  |  | 0.00793 |
| O=C1NCCCC[C@H]1Nc1nc2ccccc2c2nc(-c3cccc(F)c3)nn12 [Example 11, (3R)-3-{[2-(3-fluorophenyl)[1,2,4]triazolo[1,5-c]quinazolin-5-yl]amino}azepan-2-one] | 1.36e-09 |  |  |  | 0.000569 |
| Cn1cc(-c2nc3c4ccccc4nc(N[C@@H]4CCCCNC4=O)n3n2)cn1 [Example 12, (3R)-3-{[2-(1-methyl-1H-pyrazol-4-yl)[1,2,4]triazolo[1,5-c]quinazolin-5-yl]amino}azepan-2-one] | 1.31e-08 | 0.00831 |  |  |  |
| Cn1cc(-c2nc3c4ccccc4nc(NC4CCCNC4=O)n3n2)cn1 (stereo not shown) [Example 13, 3-{[2-(1-methyl-1H-pyrazol-4-yl)[1,2,4]triazolo[1,5-c]quinazolin-5-yl]amino}piperidin-2-one] | 1.21e-06 | 7.26 |  |  |  |
| COc1ccc(-c2nc3c4ccccc4nc(N[C@@H]4CCCCNC4=O)n3n2)cc1 [Example 29, (3R)-3-{[2-(4-methoxyphenyl)[1,2,4]triazolo[1,5-c]quinazolin-5-yl]amino}azepan-2-one] | 4.03e-10 | 0.000524 |  |  |  |

More lines, main results first:

| IC50 (AHR [1]) [M] | IC50 (AHR [2]; [4]) [µM] | IC50 (AHR [1]; firefly luciferase reporter) [M] | IC50 (AHR [2]; [5]) | Compound | IC50 (AHR [2]; [3]) [µM] |
| --- | --- | --- | --- | --- | --- |
| > 2e-05 | 0.317 |  |  | CCNC(=O)C(CC)Nc1nc2ccccc2c2nc(-c3ccccc3OC(F)(F)F)nn12 (single isomer, unassigned) [Example 663, N-ethyl-2-({2-[2-(trifluoromethoxy)phenyl][1,2,4]triazolo[1,5-c]quinazolin-5-yl}amino)butanamide] |  |
|  |  | 7.05e-09 | 0.147 µM | COc1ccc(-c2nc3c4cccc(S(C)(=N)=O)c4nc(N[C@@H]4CCCCNC4=O)n3n2)cc1 (single isomer, unassigned) [Example 854] |  |
|  |  | > 2e-05 | 19.6 µM and > 20 µM | Cn1cc(-c2nc3c4cccc(Br)c4nc(N[C@H]4CS(=N)(=O)CCNC4=O)n3n2)cn1 (single isomer, unassigned) [Example 856] |  |
|  |  | 4.25e-06 | 2.14 µM | Cn1cc(-c2nc3c4cccc(Br)c4nc(N[C@H]4CS(=N)(=O)CCNC4=O)n3n2)cn1 (single isomer, unassigned) [Example 857] |  |
| 2.4e-08 | 0.0686 |  |  | NC(=O)[C@@H](CO)Nc1nc2ccccc2c2nc(-c3ccccc3)nn12 [Example 2, N^2-(2-phenyl[1,2,4]triazolo[1,5-c]quinazolin-5-yl)-D-serinamide] |  |
| 5.93e-10 | > 10 |  |  | O=C1NCCCC[C@H]1Nc1nc2ccccc2c2nc(-c3ccc(Cl)cc3)nn12 [Example 6] |  |
| 5.44e-08 | 0.105 |  |  | O=C1NCCCC1Nc1nc2ccccc2c2nc(-c3cccc(F)c3)nn12 (stereo not shown) [Example 8, 3-{[2-(3-fluorophenyl)[1,2,4]triazolo[1,5-c]quinazolin-5-yl]amino}piperidin-2-one] |  |
| 2.14e-07 | 0.234 |  |  | Cn1cc(-c2nc3c4ccccc4nc(N[C@H]4CCCCNC4=O)n3n2)cn1 [Example 14, (3S)-3-{[2-(1-methyl-1H-pyrazol-4-yl)[1,2,4]triazolo[1,5-c]quinazolin-5-yl]amino}azepan-2-one] |  |
| 1.78e-05 | 7.82 |  |  | Cn1cc(-c2nc3c4ccccc4nc(NC4CCNC4=O)n3n2)cn1 (stereo not shown) [Example 15, 3-{[2-(1-methyl-1H-pyrazol-4-yl)[1,2,4]triazolo[1,5-c]quinazolin-5-yl]amino}pyrrolidin-2-one] |  |
| 7.44e-08 | 0.0276 |  |  | CC[C@@H](Nc1nc2ccccc2c2nc(-c3cnn(C)c3)nn12)C(N)=O [Example 17, (2R)-2-{[2-(1-methyl-1H-pyrazol-4-yl)[1,2,4]triazolo[1,5-c]quinazolin-5-yl]amino}butanamide] |  |
| 1.59e-08 | 0.0536 |  |  | COc1ccc(-c2nc3c4ccccc4nc(N[C@@H]4CCNC4=O)n3n2)cc1 [Example 39, (3R)-3-{[2-(4-methoxyphenyl)[1,2,4]triazolo[1,5-c]quinazolin-5-yl]amino}pyrrolidin-2-one] |  |
| 2.08e-08 | 0.38 |  |  | COc1ccc(-c2nc3c4ccccc4nc(N[C@H]4CCNC4=O)n3n2)cc1 [Example 40, (3S)-3-{[2-(4-methoxyphenyl)[1,2,4]triazolo[1,5-c]quinazolin-5-yl]amino}pyrrolidin-2-one] |  |
